Like-named read-outs stand apart in the source and are kept apart here.
Legend:
Test in all cases: biochemical
Parameters in all cases: species or system human cell line lysate
[1] = target: Serine/threonine-protein kinase 16 ; STK16 ; O75716 (Homo sapiens, UniProt O75716)
[2] = target: 5'-AMP-activated protein kinase catalytic subunit alpha-2 ; PRKAA2 ; P54646 (Homo sapiens, UniProt P54646)
[3] = target: Serine/threonine-protein kinase D1 ; PRKD1 ; Q15139 (Homo sapiens, UniProt Q15139)
[4] = target: T1, Cyclin-dependent kinase-like 5 ; CDKL5 ; O76039 (Homo sapiens, UniProt O76039)
T1 sequence (O76039 1-960): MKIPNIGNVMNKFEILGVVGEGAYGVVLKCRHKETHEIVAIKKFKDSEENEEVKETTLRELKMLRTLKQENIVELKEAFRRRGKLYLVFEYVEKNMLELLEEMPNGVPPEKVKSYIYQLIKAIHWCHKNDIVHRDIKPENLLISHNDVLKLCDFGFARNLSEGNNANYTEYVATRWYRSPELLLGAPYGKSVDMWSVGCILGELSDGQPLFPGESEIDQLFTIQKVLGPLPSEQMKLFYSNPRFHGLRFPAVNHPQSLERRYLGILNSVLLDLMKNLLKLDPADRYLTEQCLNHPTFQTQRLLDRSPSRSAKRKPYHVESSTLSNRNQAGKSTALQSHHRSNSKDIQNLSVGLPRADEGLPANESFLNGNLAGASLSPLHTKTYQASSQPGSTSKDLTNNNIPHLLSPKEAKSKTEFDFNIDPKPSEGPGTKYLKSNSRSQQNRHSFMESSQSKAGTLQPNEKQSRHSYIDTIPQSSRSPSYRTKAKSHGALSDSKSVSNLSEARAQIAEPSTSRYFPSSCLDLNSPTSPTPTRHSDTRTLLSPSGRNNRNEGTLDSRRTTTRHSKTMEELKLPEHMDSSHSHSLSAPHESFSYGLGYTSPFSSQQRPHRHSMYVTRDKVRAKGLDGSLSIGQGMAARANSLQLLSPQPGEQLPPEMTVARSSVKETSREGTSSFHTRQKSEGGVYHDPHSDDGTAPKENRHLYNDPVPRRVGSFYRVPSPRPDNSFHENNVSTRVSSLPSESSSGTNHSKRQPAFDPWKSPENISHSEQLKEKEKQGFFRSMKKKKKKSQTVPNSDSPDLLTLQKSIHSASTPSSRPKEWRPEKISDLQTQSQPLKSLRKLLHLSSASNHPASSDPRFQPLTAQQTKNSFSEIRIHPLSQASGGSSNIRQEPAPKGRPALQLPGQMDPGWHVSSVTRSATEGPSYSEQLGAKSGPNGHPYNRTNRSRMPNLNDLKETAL

[5] = target: Non-receptor tyrosine-protein kinase TYK2 ; TYK2 ; P29597 (Homo sapiens, UniProt P29597)
[6] = target: Cyclin-dependent kinase 8 ; CDK8 ; P49336 (Homo sapiens, UniProt P49336)
Sequence of Cyclin-dependent kinase 8 ; CDK8 ; P49336 (P49336 whole entry, one chain of several): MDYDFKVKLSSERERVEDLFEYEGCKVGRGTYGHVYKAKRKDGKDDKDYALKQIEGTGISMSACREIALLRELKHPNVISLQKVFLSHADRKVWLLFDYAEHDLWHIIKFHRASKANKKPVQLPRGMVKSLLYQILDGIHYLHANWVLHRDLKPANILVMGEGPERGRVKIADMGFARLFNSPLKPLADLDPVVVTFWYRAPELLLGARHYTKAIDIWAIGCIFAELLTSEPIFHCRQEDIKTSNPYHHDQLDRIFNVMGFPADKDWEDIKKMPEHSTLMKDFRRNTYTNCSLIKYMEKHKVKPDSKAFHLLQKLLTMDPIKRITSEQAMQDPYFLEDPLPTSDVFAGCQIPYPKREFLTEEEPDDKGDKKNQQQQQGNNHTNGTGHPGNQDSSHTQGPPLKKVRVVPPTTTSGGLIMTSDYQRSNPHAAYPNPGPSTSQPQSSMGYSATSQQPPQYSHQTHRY

[7] = target: Cyclin-dependent kinase 4 ; CDK4 ; P11802 (Homo sapiens, UniProt P11802)
Sequence of Cyclin-dependent kinase 4 ; CDK4 ; P11802 (P11802 whole entry, one chain of several): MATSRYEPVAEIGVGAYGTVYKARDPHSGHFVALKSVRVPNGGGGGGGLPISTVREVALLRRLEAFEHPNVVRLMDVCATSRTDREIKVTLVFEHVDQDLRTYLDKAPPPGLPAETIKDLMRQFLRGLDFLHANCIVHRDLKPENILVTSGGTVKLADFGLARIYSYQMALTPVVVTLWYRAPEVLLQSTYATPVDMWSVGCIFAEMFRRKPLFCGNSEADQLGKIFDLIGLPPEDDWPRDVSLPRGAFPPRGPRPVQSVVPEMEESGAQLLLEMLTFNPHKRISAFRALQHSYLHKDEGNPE

[8] = target: T2, Interleukin-1 receptor-associated kinase 3 ; IRAK3 ; Q9Y616 (Homo sapiens, UniProt Q9Y616)
T2 sequence (Q9Y616 1-596): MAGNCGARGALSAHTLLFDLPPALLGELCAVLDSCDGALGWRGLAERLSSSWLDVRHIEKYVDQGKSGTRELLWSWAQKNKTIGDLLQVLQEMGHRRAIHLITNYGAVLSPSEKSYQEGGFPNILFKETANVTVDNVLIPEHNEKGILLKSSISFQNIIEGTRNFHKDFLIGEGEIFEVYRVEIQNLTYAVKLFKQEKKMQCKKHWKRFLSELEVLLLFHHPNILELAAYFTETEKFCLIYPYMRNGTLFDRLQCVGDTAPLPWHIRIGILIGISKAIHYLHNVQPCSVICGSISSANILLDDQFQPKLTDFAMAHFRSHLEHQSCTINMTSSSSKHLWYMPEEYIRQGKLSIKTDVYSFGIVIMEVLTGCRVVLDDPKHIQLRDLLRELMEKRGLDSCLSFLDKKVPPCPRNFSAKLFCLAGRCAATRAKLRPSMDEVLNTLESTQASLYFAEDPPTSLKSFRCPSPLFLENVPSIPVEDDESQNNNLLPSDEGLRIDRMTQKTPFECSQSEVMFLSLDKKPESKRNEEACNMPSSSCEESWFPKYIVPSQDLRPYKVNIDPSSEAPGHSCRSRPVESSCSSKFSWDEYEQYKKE

[9] = target: Mast/stem cell growth factor receptor Kit ; KIT ; P10721 (Homo sapiens, UniProt P10721)
Sequence of Mast/stem cell growth factor receptor Kit ; KIT ; P10721 (P10721 whole entry, one chain of several): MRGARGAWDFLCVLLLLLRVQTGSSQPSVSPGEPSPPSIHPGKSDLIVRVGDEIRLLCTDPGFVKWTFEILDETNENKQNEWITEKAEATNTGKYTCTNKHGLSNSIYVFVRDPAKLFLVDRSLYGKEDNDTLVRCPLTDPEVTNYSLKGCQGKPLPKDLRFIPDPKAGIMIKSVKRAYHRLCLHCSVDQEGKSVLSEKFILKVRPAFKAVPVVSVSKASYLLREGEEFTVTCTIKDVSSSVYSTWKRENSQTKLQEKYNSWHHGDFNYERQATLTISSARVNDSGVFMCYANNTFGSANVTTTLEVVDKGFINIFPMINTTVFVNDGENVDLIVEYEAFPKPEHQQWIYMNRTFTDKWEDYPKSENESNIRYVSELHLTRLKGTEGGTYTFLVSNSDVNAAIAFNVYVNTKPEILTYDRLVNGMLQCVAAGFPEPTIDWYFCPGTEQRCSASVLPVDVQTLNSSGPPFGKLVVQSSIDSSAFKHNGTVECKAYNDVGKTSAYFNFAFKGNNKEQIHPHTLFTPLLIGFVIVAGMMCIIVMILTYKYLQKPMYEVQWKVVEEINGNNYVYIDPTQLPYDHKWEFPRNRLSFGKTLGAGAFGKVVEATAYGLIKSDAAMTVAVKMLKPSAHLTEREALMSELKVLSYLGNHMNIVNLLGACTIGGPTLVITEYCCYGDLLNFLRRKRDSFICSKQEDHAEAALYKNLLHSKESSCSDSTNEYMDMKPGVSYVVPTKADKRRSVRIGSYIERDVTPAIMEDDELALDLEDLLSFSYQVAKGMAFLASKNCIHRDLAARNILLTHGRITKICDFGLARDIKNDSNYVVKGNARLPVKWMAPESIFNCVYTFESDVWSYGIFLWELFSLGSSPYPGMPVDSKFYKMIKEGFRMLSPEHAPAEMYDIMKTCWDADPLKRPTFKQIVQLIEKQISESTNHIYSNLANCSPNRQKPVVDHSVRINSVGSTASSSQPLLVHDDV

[10] = target: Calcium/calmodulin-dependent protein kinase kinase 1 ; CAMKK1 ; Q8N5S9 (Homo sapiens, UniProt Q8N5S9)
Sequence of Calcium/calmodulin-dependent protein kinase kinase 1 ; CAMKK1 ; Q8N5S9 (Q8N5S9 whole entry, one chain of several): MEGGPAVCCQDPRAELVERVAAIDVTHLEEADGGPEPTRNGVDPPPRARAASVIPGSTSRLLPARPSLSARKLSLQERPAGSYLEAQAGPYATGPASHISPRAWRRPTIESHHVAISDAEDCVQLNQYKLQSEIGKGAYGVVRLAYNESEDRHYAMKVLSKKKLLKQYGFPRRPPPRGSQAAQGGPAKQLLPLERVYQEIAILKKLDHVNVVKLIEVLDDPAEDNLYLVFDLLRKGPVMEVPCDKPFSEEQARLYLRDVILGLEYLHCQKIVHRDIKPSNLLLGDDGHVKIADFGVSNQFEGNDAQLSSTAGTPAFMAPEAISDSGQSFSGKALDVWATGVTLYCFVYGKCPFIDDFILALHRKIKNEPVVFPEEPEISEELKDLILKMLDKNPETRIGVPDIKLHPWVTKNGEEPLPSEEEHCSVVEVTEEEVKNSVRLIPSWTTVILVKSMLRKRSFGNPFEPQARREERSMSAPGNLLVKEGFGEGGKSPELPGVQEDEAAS

[11] = target: Cyclin-dependent kinase 19 ; CDK19 ; Q9BWU1 (Homo sapiens, UniProt Q9BWU1)
[12] = target: Cyclin-dependent kinase 13 ; CDK13 ; Q14004 (Homo sapiens, UniProt Q14004)
Sequence of Cyclin-dependent kinase 13 ; CDK13 ; Q14004 (Q14004 whole entry, one chain of several): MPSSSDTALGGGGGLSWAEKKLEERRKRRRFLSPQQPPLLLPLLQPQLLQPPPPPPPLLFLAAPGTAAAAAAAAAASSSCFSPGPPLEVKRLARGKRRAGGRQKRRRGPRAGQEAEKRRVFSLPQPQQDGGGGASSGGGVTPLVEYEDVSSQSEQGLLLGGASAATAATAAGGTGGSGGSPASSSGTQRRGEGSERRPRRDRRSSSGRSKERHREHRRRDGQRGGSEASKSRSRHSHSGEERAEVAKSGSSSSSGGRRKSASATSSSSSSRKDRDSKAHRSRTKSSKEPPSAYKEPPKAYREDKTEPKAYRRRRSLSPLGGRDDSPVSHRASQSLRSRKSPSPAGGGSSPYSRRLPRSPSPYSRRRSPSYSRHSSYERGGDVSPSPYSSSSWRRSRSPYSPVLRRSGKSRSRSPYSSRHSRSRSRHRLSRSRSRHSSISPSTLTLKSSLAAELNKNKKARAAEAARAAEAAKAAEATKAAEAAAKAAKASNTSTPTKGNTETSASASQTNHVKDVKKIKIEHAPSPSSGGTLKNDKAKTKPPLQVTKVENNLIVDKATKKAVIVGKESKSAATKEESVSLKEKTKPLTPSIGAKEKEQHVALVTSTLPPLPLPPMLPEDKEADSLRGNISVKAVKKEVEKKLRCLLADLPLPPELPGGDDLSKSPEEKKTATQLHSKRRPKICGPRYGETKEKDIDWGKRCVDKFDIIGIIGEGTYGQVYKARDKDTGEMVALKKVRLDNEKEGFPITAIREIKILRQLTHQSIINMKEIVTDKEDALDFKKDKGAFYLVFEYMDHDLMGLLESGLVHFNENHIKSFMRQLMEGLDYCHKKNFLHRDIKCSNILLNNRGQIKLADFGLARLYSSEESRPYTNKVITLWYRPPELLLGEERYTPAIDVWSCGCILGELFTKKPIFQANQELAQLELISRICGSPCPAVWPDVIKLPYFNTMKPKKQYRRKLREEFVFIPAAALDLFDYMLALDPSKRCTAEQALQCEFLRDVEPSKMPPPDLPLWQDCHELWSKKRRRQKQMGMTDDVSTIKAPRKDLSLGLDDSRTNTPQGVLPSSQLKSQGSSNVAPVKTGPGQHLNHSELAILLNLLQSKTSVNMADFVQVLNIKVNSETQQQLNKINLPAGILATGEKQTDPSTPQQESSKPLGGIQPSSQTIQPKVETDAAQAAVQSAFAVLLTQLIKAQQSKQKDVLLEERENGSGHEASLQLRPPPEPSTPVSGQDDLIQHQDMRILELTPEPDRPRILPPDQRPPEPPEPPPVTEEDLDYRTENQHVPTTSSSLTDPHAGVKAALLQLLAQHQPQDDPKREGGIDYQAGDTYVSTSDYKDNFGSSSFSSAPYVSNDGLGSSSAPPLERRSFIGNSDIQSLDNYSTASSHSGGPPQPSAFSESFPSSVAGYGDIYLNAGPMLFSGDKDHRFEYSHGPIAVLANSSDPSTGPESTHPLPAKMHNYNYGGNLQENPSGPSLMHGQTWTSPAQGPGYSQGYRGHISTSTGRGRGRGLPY

[13] = read-out: BAY-1143572 (10 µM) / %Intensity relative to DMSO
[14] = read-out: BAY-1251152 (10 µM) / %Intensity relative to DMSO

Sequence of Serine/threonine-protein kinase 16 ; STK16 ; O75716 (O75716 whole entry, one chain of several): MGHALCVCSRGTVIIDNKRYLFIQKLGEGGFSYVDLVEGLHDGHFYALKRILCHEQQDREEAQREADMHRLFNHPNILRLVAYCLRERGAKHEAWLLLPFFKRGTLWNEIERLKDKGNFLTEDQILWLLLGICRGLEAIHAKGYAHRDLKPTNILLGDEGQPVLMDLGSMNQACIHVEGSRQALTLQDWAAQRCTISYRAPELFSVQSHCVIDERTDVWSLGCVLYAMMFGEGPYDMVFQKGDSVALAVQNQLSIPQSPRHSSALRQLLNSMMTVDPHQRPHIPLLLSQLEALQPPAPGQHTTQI
Sequence of 5'-AMP-activated protein kinase catalytic subunit alpha-2 ; PRKAA2 ; P54646 (P54646 whole entry, one chain of several): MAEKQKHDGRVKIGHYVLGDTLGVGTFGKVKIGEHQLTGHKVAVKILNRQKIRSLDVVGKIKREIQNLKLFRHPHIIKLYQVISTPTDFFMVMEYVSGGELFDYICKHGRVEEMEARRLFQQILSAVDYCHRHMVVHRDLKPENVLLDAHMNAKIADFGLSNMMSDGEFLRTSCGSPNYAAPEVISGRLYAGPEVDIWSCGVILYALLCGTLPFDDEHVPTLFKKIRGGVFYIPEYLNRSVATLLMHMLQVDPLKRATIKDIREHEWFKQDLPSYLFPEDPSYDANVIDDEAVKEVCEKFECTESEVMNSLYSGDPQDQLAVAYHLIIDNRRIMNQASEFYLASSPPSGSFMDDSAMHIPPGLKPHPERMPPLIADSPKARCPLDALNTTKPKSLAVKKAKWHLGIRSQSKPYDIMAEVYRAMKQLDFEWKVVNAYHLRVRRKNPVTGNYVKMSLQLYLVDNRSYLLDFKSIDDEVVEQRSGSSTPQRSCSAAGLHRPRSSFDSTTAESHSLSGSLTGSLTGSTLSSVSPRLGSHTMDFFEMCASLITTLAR

SMILES | remaining activity at 10 µM [1, 13] [%] | remaining activity at 10 µM [2, 13] [%] | remaining activity at 10 µM [3, 13] [%] | IC50 [4] [µM] | IC50 [5] [nM] | IC50 [6] [µM] | IC50 [7] [µM] | IC50 [8] [nM] | IC50 [9] [nM] | IC50 [10] [nM] | IC50 [11] [µM] | IC50 [12] [µM] | remaining activity at 10 µM [1, 14] [%] | remaining activity at 10 µM [2, 14] [%] | remaining activity at 10 µM [3, 14] [%]
COc1cc(F)ccc1-c1ncnc(Nc2cccc(C[S@](C)(=N)=O)c2)n1 [BAY-1143572] | 64.2 | 115 | 155 | 3.36 | 2990 | > 10 | > 10 | 2980 | 649 | 379 | > 10 | > 10 |  |  | 
COc1cc(F)ccc1-c1cc(Nc2cc(CS(C)(=N)=O)ccn2)ncc1F (stereo not drawn) [BAY-1251152] |  |  |  | > 10 | > 10000 | > 10 | > 10 | > 10000 | > 10000 | 305 | > 10 | > 10 | 61.5 | 113 | 154

— publication doi:10.1101/2024.08.13.607785v1 (biorxiv, 2024)
